{
  "source": "patent US20130165475A1",
  "about": "“DEUTERIUM-ENRICHED HETEROCYCLIC COMPOUNDS AS KINASE INHIBITORS” (ASCEPION PHARMACEUTICALS, INC., priority 2010, published 2013)",
  "key": {"BEL7404": {"test_system": "BEL7404", "assay": "In vivo anti-tumor efficacy, BEL7404 xenograft", "set-up": "species or system human", "conditions": "Liver cancer, BEL7404 s.c. in nu/nu Balb/c athymic mice, 50 mg/kg once per day oral gavage"}, "[1]": {"assay": "Oral bioavailability study, Group 1 (mice)", "format": "in vivo, male ICR mice", "method": "Oral pharmacokinetic studies were performed on Example 2. Specifically, this compound was dissolved in PEG-400 (2:1 mixture of PEG400 and 0.01N HCL (v/v)) and administered orally to male ICR mice at a dose of 50 mg/kg. Mice blood was obtained via eyeball enucleation at 0.25, 0.5, 1, 2, 3, 4, 6, 8, 12 and 24 hours after administration. The concentration of Example 2 in blood was determined using appropriate internal standards and reverse phase HPLC with UV detection.\nControl blood samples were also used to identify compound-specific peaks. The oral bioavailability was determined by comparing the dose corrected areas under plasma-concentration time curve (AUC) to infinity for Example 2, given orally and intravenously in mice."}, "[2]": {"test_system": "HT-29 human colon cancer cells", "assay": "In vivo anti-tumor efficacy, HT-29 xenograft", "conditions": "HT-29 s.c. in nu/nu Balb/c athymic mice, 50 mg/kg once per day oral gavage", "method": "(§1) Female (nu/nu) Balb/c athymic mice at 4-6 weeks of age were injected subcutaneously (s.c.) with MDA-MB-231 human breast cancer cells, A549 human non-small cell lung cancer cells, BEL7401 human liver cancer cells, HT-29 human colon cancer cells, or MKN-45 human gastric cancer cells (ATCC, 5×10^6 cells suspended in 100 μl DMEM medium). Treatment was initiated after the tumor mass grown from subcutaneous implanted tumor cells reaches a median volume of 200-400 mm^3. Mice were randomized into groups with three in each group such that the median tumor volume is nearly equal among all groups. […] Tumor volumes were assessed at least twice weekly by caliper measurement from the start of treatment. Tumor volume was calculated using the formula ½×L×W^2 (L: length of tumor's long axis, W: length of tumor's short axis). […] The efficacy of compounds in reducing tumor growth was assessed by the index Tumor Growth Inhibition (TGI). TGI for a given treatment period was calculated using the group mean tumor volumes according to the formula: TGI=100×(Vvehicle—group−VTreatment—group)÷VVehicle—group wherein VVehicle—group representing the mean tumor volume for the group treated with vehicle and VTreatment—group representing the mean tumor volume of the group treated with a compound."}, "[3]": {"test_system": "MDA-MB-231 human breast cancer cells", "assay": "In vivo anti-tumor efficacy, MDA-MB-231 xenograft", "conditions": "MDA-MB-231 s.c. in nu/nu Balb/c athymic mice, 50 mg/kg once per day oral gavage", "method": "as §1"}, "[4]": {"test_system": "MKN-45 human gastric cancer cells", "assay": "In vivo anti-tumor efficacy, MKN-45 xenograft", "conditions": "MKN-45 s.c. in nu/nu Balb/c athymic mice, 50 mg/kg once per day oral gavage", "method": "as §1"}, "[5]": {"test_system": "A549 human non-small cell lung cancer cells", "assay": "In vivo anti-tumor efficacy, A549 xenograft", "conditions": "A549 s.c. in nu/nu Balb/c athymic mice, 50 mg/kg once per day oral gavage", "method": "as §1"}},
  "data": [
    {"compound": "Cl.[2H]C([2H])(c1ccnc(N)c1)n1ccc2c(NC(=O)Nc3cc(Cl)ccc3OC)cccc21", "note": "[Example 2, 1-[1-[(2-amino-4-pyridyl)-dideuteriomethyl]indol-4-yl]-3-(5-chloro-2-methoxyphenyl)urea hydrochloride]", "values": [
      {"measurement": "Tumor Growth Inhibition (TGI)", "setting": "BEL7404", "value": "A (the TGI is greater or equal to 50%)"},
      {"measurement": "amount detected in blood after oral dosing", "setting": "[1]; mice, 0.25 hour after 50 mg/kg oral dosing", "value": "substantial amounts"},
      {"measurement": "bioavailability", "setting": "[1]; mouse, plasma, male ICR mice, 50 mg/kg oral, AUC to infinity oral vs intravenous", "value": "> 88", "unit": "%"},
      {"measurement": "half-life", "setting": "[1]; mouse, whole blood, male ICR mice, 50 mg/kg oral", "value": "2.3 to 3.5", "unit": "h"},
      {"measurement": "Tumor Growth Inhibition (TGI)", "setting": "[2]", "value": "A (the TGI is greater or equal to 50%)"},
      {"measurement": "Tumor Growth Inhibition (TGI)", "setting": "[3]", "value": "A (the TGI is greater or equal to 50%)"},
      {"measurement": "Tumor Growth Inhibition (TGI)", "setting": "[4]", "value": "A (the TGI is greater or equal to 50%)"},
      {"measurement": "Tumor Growth Inhibition (TGI)", "setting": "[5]", "value": "A (the TGI is greater or equal to 50%)"}
    ]}
  ]
}
